This note sets out measurements from the Kinase Knowledgebase extract (Sharma et al. 2016).

Where “and” joins values, the source holds several entries; their conditions need not be identical. Identical values can stand only once.

Assay [1] concerns the target EGFR (UniProt P00533).
Assay [2] deals with MAP2K1;MAPK14 (human) (UniProt Q16539). As to the kind of experiment: Inhibition of HT1197 Cell Proliferation by MTT Assay.
Assay [3] shares this target. The assay can be described thus: Inhibition of LnCAP Cell Proliferation by MTT Assay.
Assay [4] has the same target. The assay can be described thus: Inhibition of BXPC3 Cell Proliferation by MTT Assay. As to conditions: bxpc-3 pancreatic.
The target in assay [5] is EGFR (human) (UniProt P00533). Conditions: a431.
Chain of EGFR (human) (P00533 whole entry, looked up): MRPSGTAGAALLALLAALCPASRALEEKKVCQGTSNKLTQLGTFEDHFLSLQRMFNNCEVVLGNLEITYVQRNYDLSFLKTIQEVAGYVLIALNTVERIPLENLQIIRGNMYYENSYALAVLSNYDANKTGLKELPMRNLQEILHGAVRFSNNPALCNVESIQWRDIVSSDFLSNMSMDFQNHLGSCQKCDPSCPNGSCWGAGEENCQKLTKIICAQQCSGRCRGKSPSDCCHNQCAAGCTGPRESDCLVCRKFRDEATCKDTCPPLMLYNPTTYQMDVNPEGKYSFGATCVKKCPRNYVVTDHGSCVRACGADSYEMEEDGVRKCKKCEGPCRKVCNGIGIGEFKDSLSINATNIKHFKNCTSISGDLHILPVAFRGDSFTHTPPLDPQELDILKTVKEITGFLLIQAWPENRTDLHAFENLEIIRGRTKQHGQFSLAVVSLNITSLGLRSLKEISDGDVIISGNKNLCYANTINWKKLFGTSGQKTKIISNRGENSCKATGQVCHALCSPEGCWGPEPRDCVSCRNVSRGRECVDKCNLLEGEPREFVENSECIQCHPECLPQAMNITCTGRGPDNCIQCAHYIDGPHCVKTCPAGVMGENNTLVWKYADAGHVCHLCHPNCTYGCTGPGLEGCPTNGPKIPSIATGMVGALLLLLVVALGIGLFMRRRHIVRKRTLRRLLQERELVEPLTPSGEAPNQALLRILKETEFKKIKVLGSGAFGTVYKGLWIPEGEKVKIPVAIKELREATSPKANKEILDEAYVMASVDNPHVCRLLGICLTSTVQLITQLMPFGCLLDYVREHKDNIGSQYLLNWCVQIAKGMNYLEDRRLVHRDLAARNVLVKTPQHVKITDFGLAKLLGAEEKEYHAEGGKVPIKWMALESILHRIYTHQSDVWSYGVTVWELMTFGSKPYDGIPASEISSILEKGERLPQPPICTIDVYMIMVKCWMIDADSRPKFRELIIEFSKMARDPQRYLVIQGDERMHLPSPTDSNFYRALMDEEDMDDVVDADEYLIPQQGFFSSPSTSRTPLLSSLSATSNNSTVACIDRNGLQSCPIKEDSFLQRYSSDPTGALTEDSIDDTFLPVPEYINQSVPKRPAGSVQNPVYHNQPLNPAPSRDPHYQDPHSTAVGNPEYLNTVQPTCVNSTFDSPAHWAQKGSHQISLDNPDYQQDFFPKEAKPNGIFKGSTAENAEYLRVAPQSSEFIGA
Assay [6] has as its target MAPK14 (UniProt Q16539). As to the kind of experiment: Inhibition of MAPK Activity.
Assay [7] concerns the target ROCK2 (UniProt O75116). The assay can be described thus: Inhibition of COS cell Derived Rho kinase (ROCKII).
The target in assay [8] is CDK2 (UniProt P24941). The assay can be described thus: Enzyme Assay. As to conditions: concentration not given here.
Assay [9] deals with CDK2 (UniProt P24941). As to the kind of experiment: Enzyme Assay. Conditions: concentration not given here. The source holds these as a separate data set.
The target of assay [10] is EGFR (murine) (UniProt P00533). As to conditions: nih3t3.
Chain of EGFR (murine) (P00533 whole entry, looked up): as above
Assay [11] addresses EGFR (human) (UniProt P00533). Conditions: f/l herc cells.
For assay [12], the target named is EGFR (human) (UniProt P00533). Conditions: A431.
Assay [13] deals with EGFR (UniProt P00533). The source holds these as a separate data set.
Chain of EGFR (P00533 whole entry, looked up): as above
Assay [14] concerns the target EGFR (human) (UniProt P00533). Conditions: a431. The source holds these as a separate data set.
Assay [15] has as its target EGFR (UniProt P00533). The source holds these as a separate data set.
Assay [16] has as its target MAPK14 (UniProt Q16539). The assay can be described thus: p38 Inhibition.
Assay [17] deals with MAPK14 (UniProt Q16539). As to the kind of experiment: In Vitro p38 Inhibition.
Chain of MAPK14 (Q16539 whole entry, looked up): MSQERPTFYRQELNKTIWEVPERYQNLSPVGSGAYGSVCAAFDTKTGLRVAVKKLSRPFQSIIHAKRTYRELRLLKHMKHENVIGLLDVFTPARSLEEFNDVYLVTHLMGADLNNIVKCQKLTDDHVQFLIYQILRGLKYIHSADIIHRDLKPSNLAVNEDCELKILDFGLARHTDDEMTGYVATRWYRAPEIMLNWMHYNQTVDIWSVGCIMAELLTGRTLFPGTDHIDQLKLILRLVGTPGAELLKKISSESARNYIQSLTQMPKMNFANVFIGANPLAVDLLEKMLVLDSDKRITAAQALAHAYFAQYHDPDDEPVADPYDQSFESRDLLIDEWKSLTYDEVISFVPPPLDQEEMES
In assay [18] the target is PIK3CG (human) (UniProt P48736). As to the kind of experiment: Inhibition of PIK3CG Kinase Activity by SPA Assay.
The target of assay [19] is EGFR (human) (UniProt P00533). Conditions: a431. This is another data set of the same source.
For assay [20], the target named is EGFR (UniProt P00533). This is another data set of the same source.
For assay [21], the target named is EGFR (UniProt P00533). This is another data set of the same source.
Assay [22] has as its target EGFR (human) (UniProt P00533). Conditions: a431. The source holds these as a separate data set.
Assay [23] has as its target EGFR (human) (UniProt P00533). As to conditions: a431. The source holds these as a separate data set.
For assay [24], the target named is EGFR (human) (UniProt P00533). As to conditions: a431. The source holds these as a separate data set.
Assay [25] has as its target MAPK14 (human) (UniProt Q16539). As to the kind of experiment: In vitro Inhibition of LPS-Induced TNF-alpha Release in THP-1 Cells. Conditions: thp.1 monocytic.
For assay [26], the system named is MAPK14 (Balb/c mice). The assay can be described thus: Cell-Based Assay. Conditions: peritoneal macrophage.
In assay [27] the target is MAPK14 (UniProt Q16539). As to the kind of experiment: Enzyme Assay.
The target of assay [28] is EGFR (murine) (UniProt P00533). Conditions: f/l-herc.
The target of assay [29] is EGFR (murine) (UniProt P00533). Conditions: f/l-herc. The source holds these as a separate data set.
Assay [30] deals with EGFR (UniProt P00533). The source holds these as a separate data set.
Assay [31] concerns the target EGFR (human) (UniProt P00533). Conditions: a431. This is another data set of the same source.
In assay [32] the target is CDK2;CDK1 (UniProt P24941). The assay can be described thus: Cell-Based Assay.
Assay [33] deals with EGFR (UniProt P00533). The source holds these as a separate data set.

Chain of MAP2K1;MAPK14 (human) (Q16539 whole entry, looked up): as above
Chain of MAPK14 (human) (Q16539 whole entry, looked up): as above

In assay [1], `Cc1cc(C(=O)N2CCOCC2)[nH]c1/C=C1/C(=O)Nc2ncnc(Nc3cccc4c3CCC4)c21` registered an IC50 of 377 nM. For the molecule `COc1cc2c(Nc3ccc(Sc4nccn4C)c(Cl)c3)c(C#N)cnc2cc1OCCCN1CCOCC1`, the results for the IC50 in [2], in assay [3] and in assay [4] were 50 nM, 40 nM and 29 nM, respectively. Turning to `COCC1COc2cc3ncnc(Nc4cccc(Br)c4)c3cc2O1` (stereo not drawn), in [5], the GI50 was 600 nM and 240 nM.

Take `Cn1cnc2c(NCc3ccccc3)nc(NCCO)nc21`: the IC50 in assay [6] was found to be 30000 nM. The molecule `CC(N)[C@H]1CC[C@H](C(=O)Nc2ccnc3[nH]ccc23)CC1` (stereo partly drawn) registered an IC50 in assay [7] of 48 nM. For `C[S+]([O-])c1ccc(-c2nc(-c3ccc(F)cc3)c(-c3ccncc3)[nH]2)cc1` (stereo not drawn), the figures for the activity in [8] and in [9] were 91% and 112%, respectively. Regarding `CN(C)S(=O)(=O)c1ccc2c(c1)/C(=C/C1=CC3=C(CCCC3)C1)C(=O)N2`, the IC50 in [10] is over 100000 nM. `CCC(=O)CN(C)C/C=C/C(=O)Nc1cc2c(N[C@H](C)c3ccccc3)ncnc2cc1OC` gave an IC50 in [11] of 9 nM. In [12], `c1ccc(COc2ccc(Nc3ncnc4ccc(-c5ccc(CNCc6cccnc6)o5)cc34)cc2)cc1` gave an IC50 of 200 nM. Regarding `CO[C@@H](C#CC(=O)Nc1ccc2ncc(C#N)c(Nc3cccc(Br)c3)c2c1)CN1CCCC1`, the values for the IC50 in [13] and in [14] were 150 nM and 1200 nM, respectively. In assay [15], `Cc1cc(C)c(N2CCN(C)CC2)c(C)c1-c1nc(-c2ccncc2)c(-c2ccc(Cl)cc2)[nH]1` had an IC50 of 50 nM. On the same count and under the same terms, with `Cc1cc(C)c(N(C)C)c(C)c1Cc1nc(-c2ccncc2)c(-c2ccc(Cl)cc2)[nH]1` the figure was 50 nM. Regarding `O=C(CNS(=O)(=O)c1ccc(CNC(=O)c2ccc(Cl)cc2)s1)NCCNc1ncc(C(F)(F)F)cc1Cl`, the 50% inhibitory concentration (IC50) in assay [16] and in assay [17] was over 30000 nM throughout.

Consider `COc1ccccc1Cn1cnc2ccc(/C=C3\SC(=O)NC3=O)cc21`, for which the IC50 in assay [18] is under 1000 nM. `N#CC(C#N)=Cc1cc(O)c(O)c(O)c1`: the Ki in assay [19] stood at 1000 nM. Further, the IC50 in assay [20] came out at 50000 nM.

In assay [21], `N#C/C(=C\c1ccc(O)c(O)c1)C(=O)NCCCc1ccccc1` yielded an IC50 of 700 nM. This lies in the sub-micromolar range.

For `Brc1cccc(Nc2ncnc3cc4c(ccn4CCCN4CCOCC4)cc23)c1`, in [22], the IC50 came to 77 nM. In the case of `COc1cc2ncnc(N[C@H](CO)c3ccccc3)c2cc1OC`, the IC50 in assay [23] is 800 nM; in assay [24], over 1560 nM. The molecule `O=C(Nc1ccc2[nH]cc(CCc3ccncc3)c2c1)c1cc(F)cc(N2CCOCC2)c1` yielded an IC50 in [25] of 530 nM. The molecule `Cc1nnc(-c2ccc3ncnc(Nc4ccc(OCc5cc(F)cc(F)c5)cc4)c3c2)o1` came in with a concentration for half-maximal inhibition (IC50) in [12] of 9 nM. On to `OCCC#Cc1nc(-c2ccc(F)cc2)c(-c2ccncc2)n1CCCc1ccccc1`, for which the IC50 in assay [26] worked out at 19.2 nM; in assay [27], 16.1 nM.

Regarding `COc1cc2ncnc(N[C@H](COC(C)=O)c3ccccc3)c2cc1OC`, the IC50 in [23] came to 1310 nM; in assay [24] it was 5300 nM. In the case of `CN1C2CC[C@]1(Nc1ncc3ncnc(Nc4ccc(F)c(Cl)c4)c3n1)CC(O)C2` (stereo partly drawn), the IC50 is over 10000 nM in [28] and 138 nM in assay [29]. `Nc1ccc(-c2cc(Nc3ccc(S(N)(=O)=O)cc3)[nH]n2)cc1`: the IC50 in [30] is over 10000 nM. Molecule `C=CC(=O)Cc1ccc2ncnc(Nc3cccc(Br)c3)c2c1` gave an IC50 in assay [31] of 12600 nM. As for `Nc1cc(OCC2CCCCC2)nc(N)n1`, the 50% growth inhibitory concentration (GI50) in assay [32] is over 100000 nM.

Turning to `Brc1cccc(Nc2ncnc3cc4[nH]cc(CNN5CCOCC5)c4cc23)c1`, the IC50 in assay [22] came to 9.6 nM; in assay [33], 4.8 nM.
